*1 amine or outer side, *2 acyl side, *3 side chain or, on linkers, in order; H or OH if unused. Where a SMILES comes first, the peptide text is derived from it. Bridges are numbered along the chain shown (N, C = ends). [ ]: non-standard residue; d: D form. The star is where a group is joined. ξ: configuration not given here. Phe(3-CF3) = N[C@@H](Cc1cccc(C(F)(F)F)c1)C(=O)O; Phe(4-COOH) = N[C@@H](Cc1ccc(C(=O)O)cc1)C(=O)O; d(γGlu) = O=C(O)[C@@H](CCC(=O)[*:2])N[*:1]; Bip = N[C@@H](Cc1ccc(-c2ccccc2)cc1)C(=O)O; NH(CH2)14COOH = O=C(O)CCCCCCCCCCCCCCN*; Phe(3-Me) = Cc1cccc(C[C@H](N)C(=O)O)c1; βAsp = O=C(O)[C@H](CC(=O)[*:2])N[*:1]; Val(3-OH) = CC(C)(O)[C@H](N)C(=O)O; dIle(3ξ) = CCC(C)[C@@H](N)C(=O)O; 4Pal = N[C@@H](Cc1ccncc1)C(=O)O; Cha = N[C@@H](CC1CCCCC1)C(=O)O; Thr(3ξ) = CC(O)[C@H](N)C(=O)O; 12Ado = NCCCCCCCCCCCC(=O)O; Carboxymethyl = O=C(O)C*; NMeA = CN[C@@H](C)C(=O)O; Orn = NCCC[C@H](N)C(=O)O; dNMeA = CN[C@H](C)C(=O)O; Aun = NCCCCCCCCCCC(=O)O; Dab = NCC[C@H](N)C(=O)O; Dap = NC[C@H](N)C(=O)O; AEEA = NCCOCCOCC(=O)O; Ac3c = NC1(C(=O)O)CC1
Biological target: T1, PD-1/PD-L1 interaction (PE-labeled human PD-L1-Ig binding to Jurkat cell line over-expressing human PD-1) (Homo sapiens, UniProt Q15116)
T1 construct: expressed in transfected cells; host or cells: Jurkat
T1 sequence (Q15116 25-288): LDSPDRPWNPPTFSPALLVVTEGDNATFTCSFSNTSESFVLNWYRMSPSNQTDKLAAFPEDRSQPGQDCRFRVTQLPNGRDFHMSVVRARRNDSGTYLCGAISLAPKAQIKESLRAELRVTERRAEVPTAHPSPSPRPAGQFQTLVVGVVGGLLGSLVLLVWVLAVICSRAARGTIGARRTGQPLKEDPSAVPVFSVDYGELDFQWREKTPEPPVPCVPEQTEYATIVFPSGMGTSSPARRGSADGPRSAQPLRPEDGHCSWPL
Test: Jurkat-PD-1 Cell Binding High-Content Screening Assay (CBA)
Conditions: Jurkat-hPD-1 cells, PE-labeled PD-L1-Ig 20 nM final; read-out: Jurkat HPD1 PDL1 IC50
Method in brief: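 Compound is added first to the PD-1-expressing Jurkat cells and held 2 h at 37 °C in serum-containing DMEM. The fluorescent PD-L1 fusion follows at 20 nM final for 1 h. Fixed, Hoechst-stained cells are then imaged for bound label.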

SMILES	IC50
CC(C)C[C@H]1NC(=O)[C@H](C)N(C)C(=O)[C@H](Cc2ccc(OCC(=O)O)cc2)NC(=O)[C@H](Cc2ccc(-c3ccccc3)cc2)NC(=O)[C@H](Cc2ccc(C(=O)O)cc2)NC(=O)[C@H](Cc2cccc(C(F)(F)F)c2)NC(=O)[C@H](CC(=O)O)NC(=O)[C@H](Cc2ccc(OCC(=O)O)cc2)NC(=O)[C@H]([C@@H](C)O)NC(=O)CSC[C@@H](C(=O)N[C@@H](CCN)C(=O)NCCCCCCCCCCC(=O)O)NC(=O)[C@H]([C@@H](C)O)NC(=O)[C@H](C(C)C)NC(=O)[C@H](CC2CCCCC2)NC(=O)[C@H](CCN)NC1=O [Example 1231] ({CH2CO}-TY(Carboxymethyl)D[Phe(3-CF3)][Phe(4-COOH)][Bip]Y(Carboxymethyl)[NMeA][dL][Dab][Cha]VTC[Dab][Aun]-OH; thioether N-14)	30.2 nM
Cc1cccc(C[C@@H]2NC(=O)[C@H](CC(=O)O)NC(=O)[C@H](Cc3ccc(C(=O)O)cc3)NC(=O)[C@H](Cc3ccc(OCC(=O)O)cc3)NC(=O)CSC[C@@H](C(=O)NCC(=O)N[C@@H](CC(=O)NCCOCCOCC(=O)N[C@@H](CCC(=O)O)C(=O)NCCOCCOCC(=O)NCCCCCCCCCCC(=O)O)C(=O)O)NC(=O)[C@H](CO)NC(=O)[C@H](C(C)C)NC(=O)[C@H](CC(C)C)NC(=O)[C@H](CC(N)=O)NC(=O)[C@@H](CC(C)C)NC(=O)[C@H](C)N(C)C(=O)[C@H](C(C)C)NC(=O)[C@H](Cc3ccc(-c4ccccc4)cc3)NC(=O)[C@H](CC(C)C)NC2=O)c1 [Example 1023] ({CH2CO}-Y(Carboxymethyl)[Phe(4-COOH)]D[Phe(3-Me)]L[Bip]V[NMeA][dL]NLVSCG[βAsp][AEEA]E[AEEA][Aun]-OH; thioether N-14)	119 nM
CC(C)C[C@@H]1NC(=O)[C@H](Cc2c[nH]c3ccccc23)NC(=O)[C@H](CC(=O)O)NC(=O)[C@H](Cc2ccc(C(=O)O)cc2)NC(=O)[C@H](Cc2ccc(OCC(=O)O)cc2)NC(=O)CSC[C@@H](C(=O)N[C@@H](CCCN)C(=O)NCCOCCOCC(=O)NCCCCCCCCCCC(=O)O)NC(=O)[C@H](CN)NC(=O)[C@H](C(C)C)NC(=O)[C@H](CC2CCCCC2)NC(=O)[C@H](CC(N)=O)NC(=O)[C@@H](CC(C)C)NC(=O)[C@H](C)N(C)C(=O)[C@H](C(C)C)NC(=O)[C@H](Cc2ccc(-c3ccccc3)cc2)NC1=O [Example 2143] ({CH2CO}-Y(Carboxymethyl)[Phe(4-COOH)]DWL[Bip]V[NMeA][dL]N[Cha]V[Dap]C[Orn][AEEA][Aun]-OH; thioether N-14)	61.3 nM
CC(=O)NCCCC[C@@H]1NC(=O)[C@H](Cc2ccc(-c3ccccc3)cc2)NC(=O)[C@H](C(C)C)NC(=O)[C@H](Cc2c[nH]c3ccccc23)NC(=O)[C@H](CC(=O)O)NC(=O)[C@H](Cc2ccc(OCC(=O)O)cc2)NC(=O)[C@H](C(C)O)NC(=O)CSC[C@@H](C(=O)N[C@@H](CCCN)C(=O)N[C@@H](CO)C(=O)NCCCCCCCCCCCC(=O)O)NC(=O)[C@H](C(C)O)NC(=O)[C@H](C(C)C)NC(=O)[C@H](CC2CCCCC2)NC(=O)[C@H](CCN)NC(=O)[C@@H](CC(C)C)NC(=O)[C@H](C)N(C)C1=O (stereo partly drawn) [Example 2405] ({CH2CO}-[Thr(3ξ)]Y(Carboxymethyl)DWV[Bip]K(Ac)[NMeA][dL][Dab][Cha]V[Thr(3ξ)]C[Orn]S[12Ado]-OH; thioether N-14)	75.3 nM

Continued, values first:

IC50	SMILES
6.7 nM	CC(C)C[C@@H]1NC(=O)[C@H](Cc2c[nH]c3ccccc23)NC(=O)[C@H](CC(=O)O)NC(=O)[C@H](Cc2ccc(C(=O)O)cc2)NC(=O)[C@H](Cc2ccc(OCC(=O)O)cc2)NC(=O)CSC[C@@H](C(=O)N[C@@H](CCN)C(=O)NCCOCCOCC(=O)NCCCCCCCCCCC(=O)O)NC(=O)[C@H](Cc2cnc[nH]2)NC(=O)[C@H](C(C)(C)O)NC(=O)[C@H](CC2CCCCC2)NC(=O)[C@H](CCN)NC(=O)[C@@H](CC(C)C)NC(=O)[C@H](C)N(C)C(=O)[C@H](C(C)C)NC(=O)[C@H](Cc2ccc(-c3ccccc3)cc2)NC1=O [Example 1129] ({CH2CO}-Y(Carboxymethyl)[Phe(4-COOH)]DWL[Bip]V[NMeA][dL][Dab][Cha][Val(3-OH)]HC[Dab][AEEA][Aun]-OH; thioether N-14)
20.9 nM	Cc1cccc(C[C@@H]2NC(=O)[C@H](CC(=O)O)NC(=O)[C@H](Cc3ccc(OCC(=O)O)cc3)NC(=O)[C@H](Cc3ccc(OCC(=O)O)cc3)NC(=O)CSC[C@@H](C(=O)N[C@@H](CCCCN)C(=O)NCCCCCCCCCCC(=O)O)NC(=O)[C@H](CN)NC(=O)[C@H](C(C)C)NC(=O)[C@H](CC3CCCCC3)NC(=O)[C@H](CCN)NC(=O)[C@@H](CC(C)C)NC(=O)[C@H](C)N(C)C(=O)[C@H](C(C)C)NC(=O)[C@H](Cc3ccc(-c4ccccc4)cc3)NC(=O)[C@H](C(C)C)NC2=O)c1 [Example 2376] ({CH2CO}-Y(Carboxymethyl)Y(Carboxymethyl)D[Phe(3-Me)]V[Bip]V[NMeA][dL][Dab][Cha]V[Dap]CK[Aun]-OH; thioether N-14)
2.8 nM	Cc1cccc(C[C@@H]2NC(=O)[C@H](CC(=O)O)NC(=O)[C@H](Cc3ccc(OCC(=O)O)cc3)NC(=O)[C@H](Cc3ccc(OCC(=O)O)cc3)NC(=O)CSC[C@@H](C(=O)NC3(C(=O)NCCOCCOCC(=O)NCCCCCCCCCCC(=O)O)CC3)NC(=O)[C@H](CCCNC(=N)N)NC(=O)[C@H](C(C)C)NC(=O)[C@H](CC3CCCCC3)NC(=O)[C@H](CCN)NC(=O)[C@@H](CC(C)C)NC(=O)[C@H](C)N(C)C(=O)[C@H](C(C)C)NC(=O)[C@H](Cc3ccc(-c4ccccc4)cc3)NC(=O)[C@H](CC(C)C)NC2=O)c1 [Example 1250] ({CH2CO}-Y(Carboxymethyl)Y(Carboxymethyl)D[Phe(3-Me)]L[Bip]V[NMeA][dL][Dab][Cha]VRC[Ac3c][AEEA][Aun]-OH; thioether N-14)
13.1 nM	CCC(C)[C@H]1NC(=O)[C@H](Cc2ccc(-c3ccccc3)cc2)NC(=O)[C@H](CC(C)C)NC(=O)[C@H](Cc2c[nH]c3ccccc23)NC(=O)[C@H](CC(=O)O)NC(=O)[C@H](Cc2ccc(C(=O)O)cc2)NC(=O)[C@H](Cc2ccc(OCC(=O)O)cc2)NC(=O)CSC[C@@H](C(=O)NCCCCCCCCCCC(=O)O)NC(=O)[C@H](CCCCN)NC(=O)[C@H](C(C)C)NC(=O)[C@H](CC2CCCCC2)NC(=O)[C@H](CCN)NC(=O)[C@@H](CC(C)C)NC(=O)[C@@H](C)N(C)C1=O (stereo partly drawn) [Example 2236] ({CH2CO}-Y(Carboxymethyl)[Phe(4-COOH)]DWL[Bip][dIle(3ξ)][dNMeA][dL][Dab][Cha]VKC[Aun]-OH; thioether N-14)
15.9 nM	CC(C)C[C@@H]1NC(=O)[C@H](Cc2c[nH]c3ccccc23)NC(=O)[C@H](CC(=O)O)NC(=O)[C@H](Cc2ccc(C(=O)O)cc2)NC(=O)[C@H](Cc2ccc(OCC(=O)O)cc2)NC(=O)CSC[C@@H](C(=O)NCC(=O)N[C@@H](CCC(=O)O)C(=O)NCC(=O)NCCCCCCCCCCC(=O)O)NC(=O)[C@H](CO)NC(=O)[C@H](C(C)C)NC(=O)[C@H](CC2CCCCC2)NC(=O)[C@H](CCN)NC(=O)[C@@H](CC(C)C)NC(=O)[C@H](C)N(C)C(=O)[C@H](C(C)C)NC(=O)[C@H](Cc2ccc(-c3ccccc3)cc2)NC1=O [Example 1032] ({CH2CO}-Y(Carboxymethyl)[Phe(4-COOH)]DWL[Bip]V[NMeA][dL][Dab][Cha]VSCGEG[Aun]-OH; thioether N-14)
21.9 nM	Cc1cccc(C[C@@H]2NC(=O)[C@H](CC(=O)O)NC(=O)[C@H](Cc3ccc(C(=O)O)cc3)NC(=O)[C@H](Cc3ccc(OCC(=O)O)cc3)NC(=O)CSC[C@@H](C(=O)NCCOCCOCC(=O)NCCCCCCCCCCC(=O)O)NC(=O)[C@H](CO)NC(=O)[C@H](C(C)C)NC(=O)[C@H](CC(C)C)NC(=O)[C@H](CC(N)=O)NC(=O)[C@@H](CC(C)C)NC(=O)[C@H](C)N(C)C(=O)[C@H](C(C)C)NC(=O)[C@H](Cc3ccc(-c4ccccc4)cc3)NC(=O)[C@H](CC(C)C)NC2=O)c1 [Example 1027] ({CH2CO}-Y(Carboxymethyl)[Phe(4-COOH)]D[Phe(3-Me)]L[Bip]V[NMeA][dL]NLVSC[AEEA][Aun]-OH; thioether N-14)

Same assay, conditions: PE-labeled PD-L1-Ig 20 nM final, Jurkat-hPD-1 cells; read-out: Jurkat HPD1 PDL1 IC50

IC50	SMILES
32.5 nM	Cc1cccc(C[C@@H]2NC(=O)[C@H](CC(=O)O)NC(=O)[C@H](Cc3ccc(OCC(=O)O)cc3)NC(=O)[C@H](Cc3ccncc3)NC(=O)CSC[C@@H](C(=O)N[C@@H](CCCN)C(=O)NCCOCCOCC(=O)NCCCCCCCCCCC(=O)O)NC(=O)[C@H](CCC(=O)O)NC(=O)[C@H](C(C)(C)O)NC(=O)[C@H](CC3CCCCC3)NC(=O)[C@H](CCN)NC(=O)[C@@H](CC(C)C)NC(=O)[C@H](C)N(C)C(=O)[C@H](Cc3ccc(C(=O)O)cc3)NC(=O)[C@H](Cc3ccc(-c4ccccc4)cc3)NC(=O)[C@H](Cc3ccc(C(=O)O)cc3)NC2=O)c1 [Example 2497] ({CH2CO}-[4Pal]Y(Carboxymethyl)D[Phe(3-Me)][Phe(4-COOH)][Bip][Phe(4-COOH)][NMeA][dL][Dab][Cha][Val(3-OH)]EC[Orn][AEEA][Aun]-OH; thioether N-14)
584 nM	CC(=O)NCCCC[C@@H]1NC(=O)[C@H](C(C)(C)O)NC(=O)[C@H](CC2CCCCC2)NC(=O)[C@H](CCN)NC(=O)[C@@H](CC(C)C)NC(=O)[C@H](C)N(C)C(=O)[C@H](CCC(N)=O)NC(=O)[C@H](Cc2ccc(-c3ccccc3)cc2)NC(=O)[C@H](Cc2ccc(C(=O)O)cc2)NC(=O)[C@H](Cc2cccc(C(F)(F)F)c2)NC(=O)[C@H](CC(=O)O)NC(=O)[C@H](Cc2ccc(OCC(=O)O)cc2)NC(=O)[C@H](Cc2ccc(OCC(=O)O)cc2)NC(=O)CSC[C@@H](C(=O)N[C@@H](CCN)C(=O)NCCOCCOCC(=O)N[C@H](CCC(=O)N[C@H](CCC(=O)NCCOCCOCC(=O)NCCCCCCCCCCCCCCC(=O)O)C(=O)O)C(=O)O)NC1=O [Example 2655] ({CH2CO}-Y(Carboxymethyl)Y(Carboxymethyl)D[Phe(3-CF3)][Phe(4-COOH)][Bip]Q[NMeA][dL][Dab][Cha][Val(3-OH)]K(Ac)C[Dab][AEEA][d(γGlu)][d(γGlu)][AEEA]-{NH(CH2)14COOH}; thioether N-14)

From US20260070945A1, “MACROCYCLIC IMMUNOMODULATORS” (Bristol-Myers Squibb Company, priority 2022, published 2026)
